Consider 21 compounds from ChEMBL document CHEMBL1130607, “Reversal of multidrug resistance (MDR) by aspidofractinine-type indole alkaloids” (Bioorg Med Chem Lett, 1998).

The structures appear in SMILES notation. In brackets after ≈: the same amount, converted by molar mass. A value given as a limit tells only on which side of the number the result lay.

The subject of the first test is Epidermoid carcinoma cell line. As to the kind of experiment: Compound was evaluated for cytotoxicity against vincristine- resistant (KB/VJ300) human oral epidermoid carcinoma cell line. In kind it is functional, cell-based.
Conditions: not given
As a reminder, the IC50 is the concentration at which inhibition is half-maximal. Consider `COC(=O)[C@@H]1CC23CCCN4CC[C@@]5(c6cccc(OC)c6N(C(=O)OC)C15CC2)[C@@H]43` (stereo partly specified), for which half-maximal inhibition (IC50) was put at 21 µg/mL (≈ 49.2 µM).

Compound `COC(=O)N1c2c(OC)cccc2[C@@]23CCN4CCCC5(CCC12[C@](O)(C(=O)OC)C5)[C@H]43` (stereo partly specified) [KOPSILONGINE] gave an IC50 of 15.4 µg/mL (≈ 34.8 µM).

For the compound `COC(=O)N1c2c(OC)cccc2[C@@]23CCN4CC=C[C@]5(CC[C@]12[C@](O)(C(=O)OC)[C@@H]5O)[C@H]43` [KOPSINGINE], the IC50 was greater than 25 µg/mL.

`COC(=O)[C@@H]1CC23CCCN4CC[C@@]5(c6ccccc6NC15CC2)[C@@H]43` (stereo partly specified) [KOPSININE]: the IC50 is 25 µg/mL (≈ 73.9 µM).

A further test deals with Epidermoid carcinoma cell line. As to the kind of experiment: Compound was evaluated for cytotoxicity against vincristine- resistant (KB/VJ300) human oral epidermoid carcinoma cell line; poor activity or moderate activity.
Conditions: not given
In kind it is functional, cell-based.
As to `COC(=O)N1c2c(OC)cccc2[C@@]23[C@H]4C(=O)[C@@]5(O)[C@H]6O[C@H]4N4CC[C@H](O)[C@]6(CC[C@]125)[C@H]43`, the 50% inhibitory concentration (IC50) result was “poor activity or moderate activity”. The same measure, in the same setting: the result for `COC(=O)N1c2c(OC)cccc2[C@@]23CCN4C[C@H]5O[C@H]5[C@]5(CC[C@]12[C@](O)(C(=O)OC)[C@@H]5O)[C@H]43` reads “poor activity or moderate activity”; that for `COC(=O)N1c2c(ccc3c2OCO3)[C@]23CC(=O)C[C@@]4(CCCN(C=O)[C@@H]42)CCC13C(=O)OC` (stereo partly specified) [DANUPHYLLINE], “poor activity or moderate activity”; that for `COC(=O)N1c2ccccc2[C@@]23[C@@H]4CN5CCC[C@]6(CC[C@]12[C@@H](O)[C@@H]6C4=O)[C@H]53` [FRUTICOSAMINE], “poor activity or moderate activity”. Still for that read-out and setting: the result for `CCO[C@H]1C[C@@H]2O[C@@H]3[C@]14CC[C@@]1(N(C(=O)OC)c5c(OC)cccc5[C@@]15CCN2[C@@H]45)[C@]3(O)C(=O)OC` [KOPSIDINE B] reads “poor activity or moderate activity”; that for `COC(=O)N1c2c(OC)cccc2[C@@]23CCN4CC[C@H](O)[C@]5(CC[C@]12[C@](O)(C(=O)OC)[C@@H]5O)[C@H]43` [KOPSINGANOL], “poor activity or moderate activity”. The same measure, in the same setting: then `COC(=O)N1c2c(ccc3c2OCO3)[C@@]23CC(=O)N(CCCC4=CC[C@]12[C@](O)(C(=O)OC)C4)C3=O` [PAUCIFLORINE A], with “poor activity or moderate activity”; and `COC(=O)N1c2c(ccc3c2OCO3)[C@]23[C@H]4OC(=O)[C@@]5(O)C[C@@]6(CCCN(C4=O)[C@@]62O)CC[C@]135` [paucidactine A], with “poor activity or moderate activity”.

Another test has as its system Epidermoid carcinoma cell line. Put plainly: Compound was evaluated for cytotoxicity against vincristine- resistant (KB/VJ300) human oral epidermoid carcinoma cell line; P = poor activity or moderate activity. To be noted: Homo sapiens, Epidermoid carcinoma cell line; read-out: IC50. In kind it is functional, cell-based.
For `COC(=O)N1c2c(ccc(O)c2OC)[C@@]23CCN4CCCC5(CCC12[C@](O)(C(=O)OC)C5)[C@H]43` (stereo partly specified), the IC50 was greater than 25 µg/mL.

The test is the same for the next values; noted with them: epidermoid carcinoma cell line.
Take `COC(=O)N1c2c(OC)cccc2[C@@]23CCN4CCC[C@]5(CC[C@]12[C@](O)(C(=O)OC)[C@@H]5O)[C@H]43` [DIHYDROKOPSINGINE]: the IC50 result is given as “Poor or moderate activity”.

The next test concerns Epidermoid carcinoma cell line. As to the kind of experiment: Compound was evaluated for cytotoxicity against vincristine- sensitive (KB/S) human oral epidermoid carcinoma cell line at 7 ug/mL. In kind it is functional.
Conditions: not given
Turning to `COC(=O)C1=CC23CCCN4CC[C@@]5(c6cccc(OC)c6N(C(=O)OC)C15CC2)[C@@H]43` (stereo partly specified), the Cell growth was less than 50%.

In another test the test system is Epidermoid carcinoma cell line. As to the kind of experiment: Compound was evaluated for cytotoxicity against vincristine-resistant (KB/VJ300) human oral epidermoid carcinoma cell line. Format: functional, cell-based.
Conditions: not given
`COC(=O)C1=CC23CCCN4CC[C@@]5(c6ccc7c(c6N(C(=O)OC)C15CC2)OCO7)[C@@H]43` (stereo partly specified) came in with an IC50 of 4.4 µg/mL (≈ 10 µM). Same read-out and setting: then `COC(=O)N1c2c(ccc(OC)c2OC)[C@@]23CCN4CCCC5(CCC12[C@](O)(C(=O)OC)C5)[C@H]43` (stereo partly specified), with 1.6 µg/mL (≈ 3.39 µM). In the case of `COC(=O)N1c2c(ccc3c2OCO3)[C@@]23CCN4CCCC5(CCC12[C@](O)(C(=O)OC)C5)[C@H]43` (stereo partly specified) [KOPSAMINE], half-maximal inhibition (IC50) required 5.6 µg/mL (≈ 12.3 µM). The same measure, in the same setting: then `COC(=O)N1c2ccccc2[C@@]23CCN4CCCC5(CCC12[C@](O)(C(=O)OC)C5)[C@H]43` (stereo partly specified) [KOPSIFLORINE], with 2.3 µg/mL (≈ 5.58 µM); and `COC(=O)N1c2c(ccc3c2OCO3)[C@@]23CCN4CCCC5(CCC12[C@](O)(C(=O)OC)C5)[C@]43C#N` (stereo partly specified) [LAHADININE A], with 2.5 µg/mL (≈ 5.19 µM); and `COC(=O)[C@@H]1CC23CCCN4CC[C@@]5(c6ccccc6N(C(=O)OC)C15CC2)[C@@H]43` (stereo partly specified) [PLEIOCARPINE], with 3.1 µg/mL (≈ 7.82 µM).
